ChEMBL document CHEMBL1156836, “4-Aryl-4-oxo-N-phenyl-2-aminylbutyramides as acetyl- and butyrylcholinesterase inhibitors. Preparation, anticholinesterase activity, docking study, and 3D structure-activity relationship based on molecular interaction fields” (Bioorg Med Chem, 2010)
Calls of active or inactive are those of the source. No cut-off for these calls is given here.

Assays:
Acetylcholinesterase [1] = molecular target: T1, Acetylcholinesterase (Electrophorus electricus, UniProt O42275)
Description: (§1) Inhibition of electric eel AChE by Ellman's method

Cholinesterase [2] = molecular target: T2, Cholinesterase (Equus caballus, UniProt P81908)
T2 sequence (P81908 whole entry): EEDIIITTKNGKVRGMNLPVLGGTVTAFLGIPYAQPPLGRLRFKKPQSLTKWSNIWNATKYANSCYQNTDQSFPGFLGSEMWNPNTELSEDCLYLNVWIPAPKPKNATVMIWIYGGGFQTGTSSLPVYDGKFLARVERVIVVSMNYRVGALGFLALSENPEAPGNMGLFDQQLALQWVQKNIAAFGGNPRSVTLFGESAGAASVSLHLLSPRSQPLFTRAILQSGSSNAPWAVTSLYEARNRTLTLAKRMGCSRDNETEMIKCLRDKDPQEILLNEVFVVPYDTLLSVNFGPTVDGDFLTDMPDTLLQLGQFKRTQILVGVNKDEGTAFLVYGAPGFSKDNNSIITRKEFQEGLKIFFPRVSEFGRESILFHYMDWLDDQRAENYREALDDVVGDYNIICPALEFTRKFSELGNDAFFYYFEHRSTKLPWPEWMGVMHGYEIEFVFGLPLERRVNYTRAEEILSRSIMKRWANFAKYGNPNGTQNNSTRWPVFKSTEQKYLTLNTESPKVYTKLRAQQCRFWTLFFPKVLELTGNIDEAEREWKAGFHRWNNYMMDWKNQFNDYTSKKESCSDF
Description: (§2) Inhibition of horse serum BChE by Ellman's method

[3] = molecular target: Cholinesterase (Equus caballus) (UniProt P81908); assay: Inhibition of horse serum BChE at 100 uM by Ellman's method
Cholinesterase (Equus caballus), sequence (P81908 whole entry): as above

Acetylcholinesterase [4] = molecular target: T1, Acetylcholinesterase; remark: listed apart in the source
Description: as §1

Cholinesterase [5] = molecular target: T2, Cholinesterase; remark: listed apart in the source
Description: as §2

[6] = molecular target: Cholinesterase (Equus caballus) (UniProt P81908); assay: Mixed type inhibition of horse serum BChE by Ellman's method
[7] = molecular target: Acetylcholinesterase (Electrophorus electricus) (UniProt O42275); assay: Mixed type inhibition of electric eel AChE by Ellman's method
Acetylcholinesterase (Electrophorus electricus), sequence (O42275 24-633 limits assumed): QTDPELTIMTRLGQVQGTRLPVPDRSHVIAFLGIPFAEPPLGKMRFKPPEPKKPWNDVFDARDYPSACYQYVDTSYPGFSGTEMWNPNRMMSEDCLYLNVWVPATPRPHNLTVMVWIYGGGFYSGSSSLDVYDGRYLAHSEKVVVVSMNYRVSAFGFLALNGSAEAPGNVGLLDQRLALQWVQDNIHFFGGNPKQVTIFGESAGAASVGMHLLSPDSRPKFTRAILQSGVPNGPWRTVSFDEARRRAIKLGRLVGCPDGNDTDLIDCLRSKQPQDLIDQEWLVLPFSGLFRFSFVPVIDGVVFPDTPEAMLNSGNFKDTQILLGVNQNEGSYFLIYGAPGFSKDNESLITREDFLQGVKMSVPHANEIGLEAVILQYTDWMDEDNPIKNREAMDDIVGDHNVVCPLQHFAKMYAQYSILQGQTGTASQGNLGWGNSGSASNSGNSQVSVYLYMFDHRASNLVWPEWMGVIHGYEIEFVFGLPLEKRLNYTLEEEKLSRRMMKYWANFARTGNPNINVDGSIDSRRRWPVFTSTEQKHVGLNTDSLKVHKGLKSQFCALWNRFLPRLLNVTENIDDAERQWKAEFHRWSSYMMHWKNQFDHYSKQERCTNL

[8] = molecular target: Cholinesterase (Equus caballus) (UniProt P81908); assay: Inhibition of horse serum BChE at 40 uM by Ellman's method
[9] = molecular target: Cholinesterase (Equus caballus) (UniProt P81908); assay: Inhibition of horse serum BChE at 15 uM by Ellman's method
[10] = molecular target: Acetylcholinesterase (Electrophorus electricus) (UniProt O42275); assay: Inhibition of electric eel AChE at 100 uM by Ellman's method
Cholinesterase [11] = molecular target: T2, Cholinesterase; assay: Inhibition of horse serum BChE by Lineweaver-Burke plot
[12] = molecular target: Cholinesterase (Equus caballus) (UniProt P81908); assay: Inhibition of horse serum BChE at 70 uM by Ellman's method
[13] = molecular target: Cholinesterase (Equus caballus) (UniProt P81908); assay: Inhibition of horse serum BChE at 30 uM by Ellman's method

T1 sequence (O42275 whole entry): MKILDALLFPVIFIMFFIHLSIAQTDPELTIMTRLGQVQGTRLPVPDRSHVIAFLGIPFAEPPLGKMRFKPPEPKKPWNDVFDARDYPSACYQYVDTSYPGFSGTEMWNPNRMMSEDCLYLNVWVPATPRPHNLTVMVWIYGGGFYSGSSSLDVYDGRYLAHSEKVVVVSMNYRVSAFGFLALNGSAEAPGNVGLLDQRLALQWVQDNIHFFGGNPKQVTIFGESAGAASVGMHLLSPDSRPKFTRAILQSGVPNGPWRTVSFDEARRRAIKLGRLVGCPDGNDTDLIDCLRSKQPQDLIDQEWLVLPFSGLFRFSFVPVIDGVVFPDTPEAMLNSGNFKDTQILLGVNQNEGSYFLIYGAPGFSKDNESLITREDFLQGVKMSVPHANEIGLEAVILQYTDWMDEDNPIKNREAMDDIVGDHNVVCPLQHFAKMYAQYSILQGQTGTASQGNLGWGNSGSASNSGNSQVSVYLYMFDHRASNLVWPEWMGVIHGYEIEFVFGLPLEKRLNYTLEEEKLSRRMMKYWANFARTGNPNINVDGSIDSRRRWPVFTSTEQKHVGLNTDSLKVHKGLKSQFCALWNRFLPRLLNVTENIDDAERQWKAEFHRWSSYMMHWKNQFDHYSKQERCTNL

SMILES | IC50 (Acetylcholinesterase [1]) | IC50 (Cholinesterase [2]) | IC50 (Acetylcholinesterase [4]) [µM] | IC50 (Cholinesterase [5]) [µM] | other results
CC(C)c1ccc(C(=O)CC(NCCCCCCCCNC(CC(=O)c2ccc(C(C)C)cc2C(C)C)C(=O)Nc2ccccc2)C(=O)Nc2ccccc2)c(C(C)C)c1 (mixture of isomers) | ND(Insoluble) | ND(Insoluble) | – | – | –
O=C(CC(NCCCCCCCCNC(CC(=O)c1ccc(Cl)cc1)C(=O)Nc1ccccc1)C(=O)Nc1ccccc1)c1ccc(Cl)cc1 (mixture of isomers) | ND(Insoluble) | ND(Insoluble) | – | – | –
COc1ccc(C(=O)CC(NCCCCCCCCNC(CC(=O)c2ccc(OC)cc2)C(=O)Nc2ccccc2)C(=O)Nc2ccccc2)cc1 (mixture of isomers) | ND(Insoluble) | ND(Insoluble) | – | – | –
Cc1ccc(C)c(C(=O)CC(NCCCCCCCCNC(CC(=O)c2cc(C)ccc2C)C(=O)Nc2ccccc2)C(=O)Nc2ccccc2)c1 (mixture of isomers) | ND(Insoluble) | ND(Insoluble) | – | – | –
CC(C)c1ccc(C(=O)CC(NCCCCCCCCNC(CC(=O)c2ccc(C(C)C)cc2)C(=O)Nc2ccccc2)C(=O)Nc2ccccc2)cc1 (mixture of isomers) | ND(Insoluble) | ND(Insoluble) | – | – | –
O=C(CC(NCCCCCCCCNC(CC(=O)c1ccc2c(c1)CCCC2)C(=O)Nc1ccccc1)C(=O)Nc1ccccc1)c1ccc2c(c1)CCCC2 (mixture of isomers) | ND(Insoluble) | ND(Insoluble) | – | – | –
O=C(CC(C(=O)Nc1ccccc1)N1CCOCC1)c1ccccc1 (racemic) | – | – | > 100 | – | inhibition [3]: 21.6%
Cc1ccc(C)c(C(=O)CC(C(=O)Nc2ccccc2)N2CCCCC2)c1 (racemic) | – | – | > 10 | 17.2 | –
COc1ccc(C(=O)CC(C(=O)Nc2ccccc2)n2ccnc2)cc1 (racemic) | – | – | 7.85 | 30.4 | –
CC(C)c1ccc(C(=O)CC(C(=O)Nc2ccccc2)n2ccnc2)c(C(C)C)c1 (racemic) | – | – | – | > 20 | inhibition [6]: Active; inhibition [7]: Active
O=C(CC(C(=O)Nc1ccccc1)n1ccnc1)c1ccc2c(c1)CCCC2 (racemic) | – | – | – | – | inhibition [8]: 17%
O=C(CC(C(=O)Nc1ccccc1)N1CCCCC1)c1ccc(Cl)cc1 (racemic) | ND(Insoluble) | ND(Insoluble) | – | – | –
CC(C)c1ccc(C(=O)CC(C(=O)Nc2ccccc2)N2CCCCC2)cc1 (racemic) | – | – | – | 7.06 | –
O=C(CC(C(=O)Nc1ccccc1)N1CCCCC1)c1ccc2c(c1)CCCC2 (racemic) | – | – | – | – | inhibition [9]: 21.5%
Cc1ccc(C)c(C(=O)CC(C(=O)Nc2ccccc2)N2CCOCC2)c1 (racemic) | – | – | > 100 | 34.1 | –
O=C(CC(C(=O)Nc1ccccc1)N1CCOCC1)c1ccc(Cl)cc1 (racemic) | ND(Insoluble) | ND(Insoluble) | – | – | –
COc1ccc(C(=O)CC(C(=O)Nc2ccccc2)N2CCOCC2)cc1 (racemic) | – | – | – | > 100 | inhibition [10]: 38.7%
CC(C)c1ccc(C(=O)CC(C(=O)Nc2ccccc2)N2CCOCC2)cc1 (racemic) | – | – | > 100 | – | inhibition [8]: 27.2%
CC(C)c1ccc(C(=O)CC(C(=O)Nc2ccccc2)N2CCOCC2)c(C(C)C)c1 (racemic) | – | – | – | 2.48 | inhibition [6]: Active; inhibition [7]: Active; Ki (Cholinesterase [11]): 3.18 µM
Cc1ccc(C)c(C(=O)CC(C(=O)Nc2ccccc2)n2ccnc2)c1 (racemic) | – | – | 27.9 | – | inhibition [12]: 42%
CC(C)c1ccc(C(=O)CC(C(=O)Nc2ccccc2)N2CCCCC2)c(C(C)C)c1 (racemic) | – | – | – | – | inhibition [9]: 39.9%
O=C(CC(C(=O)Nc1ccccc1)N1CCOCC1)c1ccc2c(c1)CCCC2 (racemic) | – | – | > 30 | – | inhibition [8]: 13%
CC(C)c1ccc(C(=O)CC(C(=O)Nc2ccccc2)n2ccnc2)cc1 (racemic) | – | – | – | – | inhibition [13]: 10%
COc1ccc(C(=O)CC(C(=O)Nc2ccccc2)N2CCCCC2)cc1 (racemic) | – | – | > 10 | > 40 | –
O=C(CC(C(=O)Nc1ccccc1)N1CCCCC1)c1ccccc1 (racemic) | – | – | > 100 | – | inhibition [3]: 34.8%
O=C(CC(C(=O)Nc1ccccc1)n1ccnc1)c1ccc(Cl)cc1 (racemic) | ND(Insoluble) | ND(Insoluble) | – | – | –
